According to patent US9943509B2, “Methods, compounds, and compositions for the treatment of musculoskeletal diseases” (UNIVERSITY OF SOUTHERN CALIFORNIA, priority 2013, dated 2018):
“Also recorded” adds a separate entry of the source.

Key:
Dmd^mdx mice [1] = assay: Bone marrow mesenchymal stem cell (MSC) counts by CFU-F assay after treatment; format: in vivo, mouse; conditions: subcutaneous, Compound 7 0.5, 1.0 and 2.0 mg/kg/day, A(1-7) 0.5 mg/kg, 9 weeks, femur marrow cultured 8 days, vs vehicle
Procedure: (§1) FIG. 3: Six different subcutaneously delivered treatment groups (n=6/group) were evaluated—wild-type (WT) C57BL/10SnJ control mice plus five groups of Dmd^mdx (C57BL/10ScSn-Dmd^mdx/J) mice: vehicle (saline/Tween 20), A(1-7) 0.5 mg/kg/day, and Compound 7 at three doses (0.5, 1.0, and 2.0 mg/kg/day). At necropsy, following 9 weeks of treadmill exercise (12-15 m/min 3 times per week) and treatment, bone marrow was collected from both femurs, cultured 8 days, and mesenchymal stem cell (MSC) counts were recorded.
(§2) Methods: 10 weeks old male Dmd^mdx mice were exercised at 12-15 m/min for 30 min 3 times a week for 10 weeks. The absence of dystrophin in Dmd^mdx mice produces a vastly different phenotype than dystrophin deficiency in humans does [De Luca et al., 2003]. […] In this study, 10 weeks of exercise during treatment was used. There were six different treatment groups—Wild Type plus five groups of Dmd^mdx mice: Vehicle, Compound 7 0.5 mg/kg/day, Compound 7 1 mg/kg/day, Compound 7 2.0 mg/kg/day, and 0.5 mg/kg/day Angiotensin (1-7).
Necropsy: At the conclusion of the 9-week observation period (19 weeks of age), all animals were euthanized, and tissue samples and bone marrow (below) were collected. The tissues collected were the diaphragm, gastrocnemius muscle, soleus muscle, tibialis anterior muscle, plantaris muscle and heart. […]

Dmd^mdx mice [2] = assay: Weights test of forelegs grip strength (grip score); format: in vivo, mouse
Procedure: FIG. 2: Performance on the weights test and calculation of grip score [Deacon, 2013] allowed a measure of forepaw grip strength was recorded following 9 weeks of treadmill exercise (12-15 m/min 3 times per week) and treatment. Six different subcutaneously delivered treatment groups (n=6/group) were evaluated—wild-type (WT) C57BL/10SnJ control mice plus five groups of Dmd^mdx (C57BL/10ScSn-Dmd^mdx/J) mice: vehicle (saline/Tween 20), A(1-7) 0.5 mg/kg/day, and Compound 7 at three doses (0.5, 1.0, and 2.0 mg/kg/day).
(§3) Effect of administration of a non-peptidic small molecule Mas agonist (“Mas agonist”), Compound 7, once daily by subcutaneous injection for 10 weeks in comparison with Angiotensin (1-7), a peptide shown in the literature to improve outcomes in mdx mice.
(§4) Test Articles: (1) Compound 7 in Tween in saline (0.5, 1 or 2 mg/kg/day); (2) A(1-7) in saline (0.5 mg/kg/day)
Methods: 10 weeks old male Dmd^mdx mice were exercised at 12-15 m/min for 30 min 3 times a week for 10 weeks. […]
If the mouse is unsuccessful at lifting a particular weight for 3 seconds in all 3 attempts then the weight lower than the current weight was recorded as the last successful weight lifted by the mouse. The number of seconds (0 or 1 or 2) was recorded for the highest weight the mouse can lift. […]

Dmd^mdx mice [3] = assay: Histological evaluation of H&E stained diaphragm; format: in vivo, mouse; conditions: subcutaneous, Compound 7 0.5, 1.0, 2.0 mg/kg/day, A(1-7) 0.5 mg/kg/day, 9 weeks, 5 random 40× fields, vs saline
Procedure: as §1, with “4: Histological evaluation:” for “3:”, “diaphragms were collected, fixed for 2 days in foramalin, paraffin embedded, sectioned,” for “bone marrow was collected from both femurs, cultured 8 days,”, “H&E stained.” for “mesenchymal stem cell (MSC) counts were recorded.”
FIG. 5: Histological evaluation: H&E stained diaphragm section, prepared as described in FIG. 4, were analyzed by for degenerating and regenerating fibers as well as inflammation. For each animal (n=6 per treatment group) 5 random 40× fields were taken across the diaphragm section and analyzed. (A) Degenerating fibers were counted as deadened fibers co-localized with an open space. […] Compound 7 across the dosage was similar to Dmd^mdx mice treated with A(1-7). (B) The number of regenerating fibers per field were counted as healthy fibers appearing with basophilic staining. […] (C) Inflammation was quantified as loci of 10 or more inflammatory cells.
as §2
Necropsy: At the conclusion of the 9-week observation period (19 weeks of age), all animals were euthanized, and tissue samples and bone marrow (below) were collected. The tissues collected were the diaphragm, gastrocnemius muscle, soleus muscle, tibialis anterior muscle, plantaris muscle and heart. The gastrocnemius muscle, soleus muscle, tibialis anterior muscle, plantaris muscle from the left leg as well as the diaphragm and heart were fixed in formalin and stored in 70% EtOH for hematoxylin and eosin (H&E) staining.
Histological Evaluation of the Diaphragm: The diaphragm was embedded in paraffin, sectioned and stained by H & E (hematoxylin and eosin). The parameters were assessed include (1) the number of regenerating fibers as defined by basophilic fibers; (2) number of degenerating fibers and the number of inflammatory loci (clusters of 10 or more inflammatory cells). Five random 40× fields per diaphragm were evaluated.

Dmd^mdx mice [4] = assay: Inverted grid test of grip strength (hang time) in treadmill-exercised mice; format: in vivo, mouse
Procedure: FIG. 1: Inverted Grid Test: Mouse hang times were recorded on an inverted grid test of grip strength following 8 weeks of treadmill exercise (12-15 m/min 3 times per week) and treatment. Six different subcutaneously delivered treatment groups (n=6/group) were evaluated—wild-type (WT) C57BL/10SnJ control mice plus five groups of Dmd^mdx (C57BL/10ScSn-Dmd^mdx/J) mice: vehicle (saline/Tween 20), A(1-7) 0.5 mg/kg/day, and Compound 7 at three doses (0.5, 1.0, and 2.0 mg/kg/day).
as §3, §4
as §2, with “(1-7). […]” for “(1-7).”

[5] = system: Dmd^mdx and Sgcd−/− mouse models of muscular dystrophy; conditions: Dmd^mdx and Sgcd−/− mice; Acuña et al., 2014; Sabharwal et al., 2012; cited from earlier work
[6] = system: cardiac fibrogenesis and remodeling; conditions: Iwata et al., 2005; Grobe et al., 2007; cited from earlier work
[7] = system: mice chronically infused with AngII; conditions: AngII/A(1-7) co-treatment vs AngII infusion alone; Cisternas et al., 2015; cited from earlier work

**Q.** Which “bone marrow MSC counts” value (Dmd^mdx mice [1]) does the source give for `CCCCOC(=O)NS(=O)(=O)c1ccc(OC(F)(F)F)cc1-c1ccc(Cn2ccnc2)cn1` [Compound 7, butyl ((2-(5-((1H-imidazol-1-yl)methyl)pyridin-2-yl)-4-(trifluoromethoxy)phenyl)sulfonyl)carbamate] here?
**A.** The value was “increased bone marrow MSC counts”.

**Q.** And the “weights test of grip strength, comparison with A(1-7)” value (Dmd^mdx mice [2]; Compound 7 0.5, 1 or 2 mg/kg/day vs A(1-7) 0.5 mg/kg/day)?
**A.** Its value is “superior to A(1-7)”.

**Q.** And the “muscle strength by the weights test of grip strength” value (Dmd^mdx mice [2]; once daily subcutaneous, treadmill exercise, summary of FIG. 2)?
**A.** Its value is “increased muscle strength”.

**Q.** What about the “inflammation: loci of 10 or more inflammatory cells in diaphragm” value (Dmd^mdx mice [3]) of the same molecule?
**A.** Its value is “significantly increased number of regenerating fibers”.

**Q.** And the “number of degenerating fibers in diaphragm” value (Dmd^mdx mice [3])?
**A.** Its value is “reduction in the number of degenerative fibers; also recorded: reduce degenerating fibers”.

**Q.** What about the “number of regenerating (basophilic) fibers per field in diaphragm” value (Dmd^mdx mice [3]) of the same molecule?
**A.** The value was “significantly increased number of regenerating fibers”.

**Q.** And the “muscle strength by the inverted grid test” value (Dmd^mdx mice [4]; once daily subcutaneous, treadmill exercise, summary of FIG. 1)?
**A.** Its value is “increased muscle strength”.

**Q.** What about the “hang time on the inverted grid test” value (Dmd^mdx mice [4]; subcutaneous 2.0 mg/kg/day, 8 weeks of treadmill exercise and treatment, vs vehicle treated Dmd^mdx, n=6/group, t-test) of the same molecule?
**A.** The value was “increase in hang time”.

**Q.** For “Asp-Arg-Val-Tyr-Ile-His-Pro (DRVYIHP; printed: Asp-Arg-Val-Tyr-Ile-His-Pro) [A(1-7), endogenous Mas receptor heptapeptide ligand, purchased from BACHEM]”, which fibrosis [5] is on record?
**A.** Its fibrosis is “reduced fibrosis”.

**Q.** And the “measures of muscle strength” value [5]?
**A.** The value was “improved measures of muscle strength”.

**Q.** What about the oxidative stress [5] of the same molecule?
**A.** The oxidative stress was “reduced”.

**Q.** What about the “bone marrow MSC counts” value (Dmd^mdx mice [1]) of the same molecule?
**A.** Its value is “increased bone marrow MSC counts”.

**Q.** And the “cardiac fibrogenesis and remodeling (interstitial myocardial fibrosis, myocyte hypertrophy)” value [6]?
**A.** The value was “block cardiac fibrogenesis and remodeling”.

**Q.** And the “gastrocnemius muscle fiber diameter” value [7]?
**A.** Its value is “prevented a decrease in gastrocnemius muscle fiber diameter”.

**Q.** What about the “performance on the weights test” value [7] of the same molecule?
**A.** Its value is “increased”.

**Q.** And the “number of degenerating fibers in diaphragm” value (Dmd^mdx mice [3])?
**A.** The value was “reduction in the number of degenerative fibers”.
